In patent US20240327380A1, “BTK INHIBITORS” (BIOGEN MA INC., priority 2020, published 2024):

molecular target: T1, active BTK enzyme (Upstate 14-552) (Homo sapiens, UniProt Q06187); assay: In Vitro BTK Kinase Assay: Btk-PolyGAT-LS Assay; type: biochemical; settings: ATP 10 μM, polyGAT 100 nM, BTK 0.25 nM, 30 minutes, TRF readout
T1 construct: purchased Upstate 14-552
Protocol: In Vitro BTK Kinase Assay: Btk-PolyGAT-LS Assay The purpose of the BTK in vitro assay is to determine compound potency against BTK through the measurement of IC50. Compound inhibition is measured after monitoring the amount of phosphorylation of a fluorescein-labeled polyGAT peptide (Invitrogen PV3611) in the presence of active BTK enzyme (Upstate 14-552), ATP, and inhibitor. The BTK kinase reaction was done in a black 96 well plate (costar 3694). For a typical assay, a 24 μL aliquot of a ATP/peptide master mix (final concentration; ATP 10 μM, polyGAT 100 nM) in kinase buffer (10 mM Tris-HCl pH 7.5, 10 mM MgCl2, 200 μM […], 5 mM DTT, 0.01% Triton X-100, and 0.2 mg/ml casein) is added to each well. Next, […] of a 4-fold, 40× compound titration in 100% DMSO solvent is added, followed by adding 15 μL of BTK enzyme mix in 1× kinase buffer (with a final concentration of 0.25 nM). The assay is incubated for 30 minutes before being stopped with 28 μL of a 50 mM EDTA solution. Aliquots (5 μL) of the kinase reaction are transferred to a low volume white 384 well plate (Coming 3674), and 5 μL of a 2× detection buffer (Invitrogen PV3574, with 4 nM Tb-PY20 antibody, Invitrogen PV3552) is added. The plate is covered and incubated for 45 minutes at room temperature. Time resolved fluorescence (TRF) on Molecular Devices M5 (332 nm excitation; 488 nm emission; 518 nm fluorescein emission) is measured. IC50 values are calculated using a four parameter fit with 100% enzyme activity determined from the DMSO control and 0% activity from the EDTA control.

T1 sequence (Q06187 whole entry): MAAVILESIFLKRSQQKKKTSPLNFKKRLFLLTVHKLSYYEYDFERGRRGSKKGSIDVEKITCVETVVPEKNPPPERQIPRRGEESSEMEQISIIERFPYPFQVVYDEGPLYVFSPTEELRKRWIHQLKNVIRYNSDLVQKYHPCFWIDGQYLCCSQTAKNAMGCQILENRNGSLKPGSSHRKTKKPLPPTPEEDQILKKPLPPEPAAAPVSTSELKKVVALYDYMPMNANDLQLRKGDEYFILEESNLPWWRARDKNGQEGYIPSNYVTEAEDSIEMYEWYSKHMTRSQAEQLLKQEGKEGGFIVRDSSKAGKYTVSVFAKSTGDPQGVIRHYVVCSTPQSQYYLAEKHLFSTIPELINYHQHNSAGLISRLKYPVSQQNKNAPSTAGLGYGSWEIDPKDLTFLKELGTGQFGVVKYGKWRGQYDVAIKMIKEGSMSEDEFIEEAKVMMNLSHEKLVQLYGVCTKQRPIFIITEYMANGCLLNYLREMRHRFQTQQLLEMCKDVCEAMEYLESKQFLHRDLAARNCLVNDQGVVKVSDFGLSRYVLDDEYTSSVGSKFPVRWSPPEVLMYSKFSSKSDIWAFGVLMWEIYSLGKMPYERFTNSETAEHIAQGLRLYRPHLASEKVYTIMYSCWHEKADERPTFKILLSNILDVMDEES

Structure (SMILES)	IC50
C#CC(=O)N1CCN(c2cnccc2-c2ccc(CNC(=O)c3noc(C(C)(C)C)n3)c(C)c2)CC1 [Example 60, 5-(tert-butyl)-N-(2-methyl-4-(3-(4-propioloylpiperazin-1-yl)pyridin-4-yl)benzyl)-1,2,4-oxadiazole-3-carboxamide]	≤ 1 nM
C=CC(=O)N1CCN(c2cncnc2-c2ccc(CNC(=O)c3nc(C(C)(C)C)no3)c(C)c2)CC1 [Example 83, N-(4-(5-(4-acryloylpiperazin-1-yl)pyrimidin-4-yl)-2-methylbenzyl)-3-(tert-butyl)-1,2,4-oxadiazole-5-carboxamide]	≤ 1 nM
C=CC(=O)N(C)C1CCCN(c2cnccc2-c2ccc(CNC(=O)c3ncc(C(C)(C)C)o3)c(C)c2)C1 (stereo not shown) [Example 45, 5-(tert-butyl)-N-(2-methyl-4-(3-(3-(N-methylacrylamido)piperidin-1-yl)pyridin-4-yl)benzyl)oxazole-2-carboxamide]	≤ 1 nM
C=CC(=O)N1CCC2(CCN(c3cnccc3-c3ccc(CNC(=O)c4cn(C(C)(C)C)nn4)c(C)c3)C2)C1 (stereo not shown) [Example 4, N-(4-(3-(7-acryloyl-2,7-diazaspiro[4.4]nonan-2-yl)pyridin-4-yl)-2-methylbenzyl)-1-(tert-butyl)-1H-1,2,3-triazole-4-carboxamide]	> 10 nM
C=CC(=O)N1CCN(c2cnccc2-c2ccc(CNC(=O)c3noc(C4(CF)CC4)n3)c(C)c2)CC1 [Example 98, N-(4-(3-(4-acryloylpiperazin-1-yl)pyridin-4-yl)-2-methylbenzyl)-5-(1-(fluoromethyl)cyclopropyl)-1,2,4-oxadiazole-3-carboxamide]	≤ 1 nM
C=CC(=O)N1CC2(C1)CN(c1cnccc1-c1ccc(CNC(=O)c3noc(C(C)(C)C)n3)c(C)c1)C2 [Example 6, N-(4-(3-(6-acryloyl-2,6-diazaspiro[3.3]heptan-2-yl)pyridin-4-yl)-2-methylbenzyl)-5-(tert-butyl)-1,2,4-oxadiazole-3-carboxamide]	> 10 nM
C=CC(=O)N1CC2(CCN(c3cnccc3-c3ccc(CNC(=O)c4noc(C(C)(C)C)n4)c(C)c3)C2)C1 [Example 7, N-(4-(3-(2-acryloyl-2,6-diazaspiro[3.4]octan-6-yl)pyridin-4-yl)-2-methylbenzyl)-5-(tert-butyl)-1,2,4-oxadiazole-3-carboxamide]	> 10 nM
C=CC(=O)N(C)[C@@H]1CCC(=O)N(c2cnccc2-c2ccc(CNC(=O)c3nnn(C(C)(C)C)n3)c(C)c2)C1 (single isomer, unassigned) [Example 53 Peak 2]	> 10 nM
C=CC(=O)N(C)C1CCCN(c2cnccc2-c2ccc(CNC(=O)c3cnc(C(C)(C)C)o3)c(C)c2)C1 (stereo not shown) [Example 38, 2-(tert-butyl)-N-(2-methyl-4-(3-(3-(N-methylacrylamido)piperidin-1-yl)pyridin-4-yl)benzyl)oxazole-5-carboxamide]	≤ 1 nM
Cc1cc(-c2ccncc2N2CCN(C(=O)/C=C/CN3CCN(C)CC3)CC2)ccc1CNC(=O)c1noc(C(C)(C)C)n1 [Example 65, (E)-5-(tert-butyl)-N-(2-methyl-4-(3-(4-(4-(4-methylpiperazin-1-yl)but-2-enoyl)piperazin-1-yl)pyridin-4-yl)benzyl)-1,2,4-oxadiazole-3-carboxamide]	1 to 10 nM
Cc1cc(-c2ccncc2N2CCN(C(=O)/C=C/CN(C)C)C(C(F)(F)F)C2)ccc1CNC(=O)c1noc(C(C)(C)C)n1 (stereo not shown) [Example 75, (E)-5-(tert-butyl)-N-(4-(3-(4-(4-(dimethylamino)but-2-enoyl)-3-(trifluoromethyl)piperazin-1-yl)pyridin-4-yl)-2-methylbenzyl)-1,2,4-oxadiazole-3-carboxamide]	≤ 1 nM
Cc1cc(-c2c(F)cncc2N2CCN(C(=O)/C=C/CN(C)C)CC2)ccc1CNC(=O)c1nc(C(C)(C)C)no1 [Example 78, (E)-3-(tert-butyl)-N-(4-(3-(4-(4-(dimethylamino)but-2-enoyl)piperazin-1-yl)-5-fluoropyridin-4-yl)-2-methylbenzyl)-1,2,4-oxadiazole-5-carboxamide]	≤ 1 nM
CN(C)C/C=C/C(=O)N1CCN(c2cnccc2-c2ccc(CNC(=O)c3noc(C(C)(C)C)n3)c(C(F)F)c2)CC1 [Example 87, (E)-5-(tert-butyl)-N-(2-(difluoromethyl)-4-(3-(4-(4-(dimethylamino)but-2-enoyl)piperazin-1-yl)pyridin-4-yl)benzyl)-1,2,4-oxadiazole-3-carboxamide]	≤ 1 nM
C=CC(=O)N1CCC[C@@H](c2cnccc2-c2ccc(CNC(=O)c3cc(C(C)(C)C)on3)c(C)c2)C1 (single isomer, unassigned) [Example 34]	> 10 nM
C=CC(=O)N1CCN(c2cncnc2-c2ccc(CNC(=O)c3nnn(C(C)(C)C)n3)c(C)c2)CC1 [Example 79, N-(4-(5-(4-acryloylpiperazin-1-yl)pyrimidin-4-yl)-2-methylbenzyl)-2-(tert-butyl)-2H-tetrazole-5-carboxamide]	≤ 1 nM
C=CC(=O)N1CCN(c2cnccc2-c2ccc(CNC(=O)c3noc(C4(C(F)F)CC4)n3)c(C)c2)CC1 [Example 99, N-(4-(3-(4-acryloylpiperazin-1-yl)pyridin-4-yl)-2-methylbenzyl)-5-(1-(difluoromethyl)cyclopropyl)-1,2,4-oxadiazole-3-carboxamide]	≤ 1 nM
C=CC(=O)N(C)C1CCCN(c2cnccc2-c2ccc(CNC(=O)c3cn(C(C)(C)C)nn3)c(C)c2)C1=O (stereo not shown) [Example 10, 1-(tert-butyl)-N-(2-methyl-4-(3-(3-(N-methylacrylamido)-2-oxopiperidin-1-yl)pyridin-4-yl)benzyl)-1H-1,2,3-triazole-4-carboxamide]	> 10 nM
C=CC(=O)N(C)[C@@H]1CCCN(c2cncc(C#N)c2-c2ccc(CNC(=O)c3cn(C(C)(C)C)nn3)c(C)c2)C1 [Example 48, (R)-1-(tert-butyl)-N-(4-(3-cyano-5-(3-(N-methylacrylamido)piperidin-1-yl)pyridin-4-yl)-2-methylbenzyl)-1H-1,2,3-triazole-4-carboxamide]	≤ 1 nM
Cc1cc(-c2ccncc2N2CCN(C(=O)/C=C/C(F)(F)F)CC2)ccc1CNC(=O)c1noc(C(C)(C)C)n1 [Example 58, (E)-5-(tert-butyl)-N-(2-methyl-4-(3-(4-(4,4,4-trifluorobut-2-enoyl)piperazin-1-yl)pyridin-4-yl)benzyl)-1,2,4-oxadiazole-3-carboxamide]	≤ 1 nM
Cc1cc(-c2c(C#N)cncc2N2CCN(C(=O)/C=C/CN(C)C)CC2)ccc1CNC(=O)c1cc(C(C)(C)C)on1 [Example 70, (E)-5-(tert-butyl)-N-(4-(3-cyano-5-(4-(4-(dimethylamino)but-2-enoyl)piperazin-1-yl)pyridin-4-yl)-2-methylbenzyl)isoxazole-3-carboxamide]	1 to 10 nM
C=C(F)C(=O)N1CCN(c2cncnc2-c2ccc(CNC(=O)c3noc(C(C)(C)C)n3)c(C)c2)CC1 [Example 81, 5-(tert-butyl)-N-(4-(5-(4-(2-fluoroacryloyl)piperazin-1-yl)pyrimidin-4-yl)-2-methylbenzyl)-1,2,4-oxadiazole-3-carboxamide]	1 to 10 nM
C=CC(=O)N(C)CC1CCCN(c2cnccc2-c2ccc(CNC(=O)c3noc(C(C)(C)C)n3)c(C)c2)C1 (stereo not shown) [Example 21, 5-(tert-butyl)-N-(2-methyl-4-(3-(3-((N-methylacrylamido)methyl)piperidin-1-yl)pyridin-4-yl)benzyl)-1,2,4-oxadiazole-3-carboxamide]	1 to 10 nM
